The values that follow come from ChEMBL document CHEMBL4689842, “EUbOPEN Chemogenomics Library wave 1” (2021).

SMILES strings stand for the structures.

The subject of the data set is U2OS. Nature of the data set: Incucyte cell viability with U2OS. Also: filed as whole numbers so only -1 and 0 and 1 occur. The format is toxicity, cell-based. Particulars: human, 10 µM, compound concentration 10 uM.
Where [1] appears, read: 0 h, replicate number 2, timepoint 0 hours.
The mark [2] stands for this setting: 6 h, replicate number 1, timepoint 6 hours.
Where [3] appears, read: 12 h, replicate number 1, timepoint 12 hours.
[4] abbreviates: 18 h, replicate number 1, timepoint 18 hours.
Where [5] appears, read: 24 h, replicate number 1, timepoint 24 hours.
[6] abbreviates: 0 h, replicate number 1, timepoint 0 hours.
[7] abbreviates: 6 h, replicate number 2, timepoint 6 hours.
Setting [8] is: 18 h, replicate number 2, timepoint 18 hours.
Setting [9] is: 24 h, replicate number 2, timepoint 24 hours.
Setting [10] is: 12 h, replicate number 2, timepoint 12 hours.

For the compound `Cc1cc(C)cc(-c2cnc3cc(Cl)c(-c4cccc(O)c4)cc3c2OCCCN)c1`, the “Growth Rate” value was determined as 0 under setting [1]; 0 under setting [2]; 0 under setting [3]; 0 under setting [4]; 0 under setting [5].

In the case of `Cc1sc2c(c1C)C(c1ccc(Cl)cc1)=N[C@@H](CC(=O)OC(C)(C)C)c1nnc(C)n1-2`, the “Growth Rate” value is 0 under setting [6]; 0 under setting [2]; 1 under setting [7]; 1 under setting [3]; 0 under setting [4]; 1 under setting [8]. Moreover, the “Growth Rate” value is 0 under setting [5] and 1 under setting [9].

For the compound `COc1cc(-n2cnc3cc(-c4ccc(Cl)cc4)sc3c2=O)ccc1OCCN1CCCC1`, the “Growth Rate” value under setting [6] came to 0; the “Growth Rate” value under setting [2] stood at 0; the “Growth Rate” value under setting [3] came out at 0; the “Growth Rate” value under setting [4] amounted to 0; the “Growth Rate” value under setting [5] stood at 0.

With `Cc1csc2c(N[C@@H](C)CN3CCN(S(=O)(=O)c4ccc(Cl)c(Cl)c4)CC3)ncnc12`, the “Growth Rate” value under setting [6] came out at 0; the “Growth Rate” value under setting [7] is 1; the “Growth Rate” value under setting [3] is 1; the “Growth Rate” value under setting [10] is recorded as 0; the “Growth Rate” value under setting [4] is given as 0; the “Growth Rate” value under setting [5] is 0.

Regarding `Cc1[nH]c(/C=C2\C(=O)Nc3ccc(S(=O)(=O)N(C)c4cccc(Cl)c4)cc32)c(C)c1C(=O)N1CCN(C)CC1`, the “Growth Rate” value is, setting by setting: under setting [1], 0; under setting [3], 0; under setting [10], 1; under setting [4], 0; under setting [5], 0.

Regarding `CNc1nc(NCc2ccc(NS(C)(=O)=O)cc2Cl)cc(-c2ccccn2)n1`, the “Growth Rate” value is, setting by setting: under setting [6], 0; under setting [2], 0; under setting [3], 0; under setting [4], 0; under setting [5], 0.

Turning to `CCn1c(=O)c(-c2ccc(Cl)cc2Cl)cc2cnc(Nc3ccc(N4CCNCC4)c(F)c3)nc21`, the “Growth Rate” value reads like this: under setting [6], 0; under setting [2], 0; under setting [3], 0; under setting [4], 0; under setting [5], 0.

`CC(C)(O)CNc1ncc(-c2ccnc(Nc3ccnc(Cl)c3)n2)c(CC2CC2)n1`: the “Growth Rate” value is, setting by setting: under setting [6], 0; under setting [2], 1; under setting [3], 0; under setting [4], 0; under setting [8], 1; under setting [5], 0. For the same compound, the “Growth Rate” value under setting [9] was determined as 1.

For the compound `Cn1cc(-c2[nH]c3cc(NC(=O)[C@H](N)C4CCCCC4)cc4c3c2C=NNC4=O)cn1`, the “Growth Rate” value is, setting by setting: under setting [6], 0; under setting [2], 0; under setting [7], 1; under setting [3], 0; under setting [10], 1; under setting [4], 0. Under setting [5], the “Growth Rate” value is 0.

For `C=CC(=O)Nc1cccc(C(=O)Nc2ccc(Nc3cc(-c4[nH]c(SC)nc4C)ccn3)cc2)c1`, the “Growth Rate” value was found to be 0 under setting [6]; 1 under setting [1]; 0 under setting [2]; 0 under setting [3]; 0 under setting [4]; 0 under setting [5].

Regarding `OC1(c2ccc(Cl)cc2)CCN(Cc2c[nH]c3ccccc23)CC1`, the “Growth Rate” value is, setting by setting: under setting [7], 0; under setting [3], 0; under setting [4], 0; under setting [5], 0.

As for `CC(C)C(=O)Nc1n[nH]c2cc(-c3cccc(NS(=O)(=O)C4CC4)c3)ccc12`, the “Growth Rate” value under setting [6] is on record as 0; the “Growth Rate” value under setting [2] was found to be 0; the “Growth Rate” value under setting [3] is given as 0; the “Growth Rate” value under setting [4] turned out to be 0; the “Growth Rate” value under setting [5] was found to be 0.

On to `CN1C(=O)c2sccc2N(C)c2nc(Nc3ccc(S(N)(=O)=O)cc3)ncc21`, for which the “Growth Rate” value came to 0 under setting [1]; 0 under setting [2]; 0 under setting [3]; 0 under setting [4]; 0 under setting [5].

In the case of `CN(C)C(=O)/C(C#N)=C/c1ccc(-c2nc3cnc4[nH]ccc4c3n2C2CCCCC2)o1`, the “Growth Rate” value by setting is: under setting [6], 0; under setting [2], 0; under setting [7], 1; under setting [3], 0; under setting [10], 1; under setting [4], 0. Moreover, the “Growth Rate” value under setting [8] was found to be 1, the “Growth Rate” value under setting [5] amounted to 0 and the “Growth Rate” value under setting [9] is on record as 1.

Turning to `C=CC(=O)Nc1ccc2ncnc(Nc3ccc(OCc4cccc(F)c4)c(Cl)c3)c2c1.Cc1ccc(S(=O)(=O)O)cc1`, the “Growth Rate” value is recorded as 1 under setting [1]; 0 under setting [7]; 1 under setting [3]; 0 under setting [4]; 0 under setting [5].

Consider `COc1cc2nccc(Oc3ccc(NC(=O)Nc4cc(C)on4)c(Cl)c3)c2cc1OC.O`, for which the “Growth Rate” value under setting [6] is 1; the “Growth Rate” value under setting [1] is reported as 0; the “Growth Rate” value under setting [2] is given as 0; the “Growth Rate” value under setting [3] is 0; the “Growth Rate” value under setting [4] is listed as 0; the “Growth Rate” value under setting [5] came to 0.

On to `Cn1cncc1[C@@](O)(COc1ccc(C#N)cc1-c1ccc(OC(F)(F)F)cc1)c1ccc(C#N)cc1` [A-108], for which the “Growth Rate” value came out at 0 under setting [6]; 0 under setting [2]; 1 under setting [3]; 0 under setting [4]; 0 under setting [5].

On to `CN(C)CC#Cc1ccc(OCCCc2sc(N3CCc4cccc(C(=O)Nc5nc6ccccc6s5)c4C3)nc2C(=O)O)c(F)c1` [A-1155463], for which the “Growth Rate” value under setting [6] is given as 0; the “Growth Rate” value under setting [2] worked out at 0; the “Growth Rate” value under setting [3] amounted to 0; the “Growth Rate” value under setting [10] is given as 1; the “Growth Rate” value under setting [4] stood at 0; the “Growth Rate” value under setting [5] came to 0.

For the compound `NC(=O)Nc1cc(-c2cccc(F)c2)sc1C(=O)N[C@H]1CCCNC1` [AZD-7762], the “Growth Rate” value reads like this: under setting [6], 0; under setting [2], 0; under setting [3], 0; under setting [4], 0; under setting [5], 0.

`CN1CCCC(n2nc(Cc3ccc(Cl)cc3)c3ccccc3c2=O)CC1.Cl` (centres undefined) [AZELASTINE HYDROCHLORIDE]: the “Growth Rate” value was 0 under setting [6]; 0 under setting [7]; 1 under setting [10]; 1 under setting [4]; 1 under setting [5].

Consider `Cn1c(-c2csc(C3CCN(CC4=NC5N=CC=CC5N4)CC3)n2)nc2ccccc21` (centres undefined) [BAY-070], for which the “Growth Rate” value is, setting by setting: under setting [6], 0; under setting [2], 0; under setting [3], 1; under setting [4], 0; under setting [8], 1; under setting [5], 1. Under setting [9], the “Growth Rate” value was 0.

Take `CNCc1ccccc1-c1csc([C@H](C)Nc2nc(C)nc3cc(OC)c(OC)cc23)c1` [BAY-294]: the “Growth Rate” value runs as follows: under setting [6], 0; under setting [2], 0; under setting [3], 0; under setting [4], 0; under setting [5], 0.

Consider `CN(C)c1ncnc(-c2ccc3nc(Nc4cc(CN5CCN(C(=O)CC(F)(F)F)CC5)ccn4)[nH]c3c2)c1Cl` [BAY-440], for which the “Growth Rate” value runs as follows: under setting [1], 0; under setting [2], 0; under setting [7], 1; under setting [3], 0; under setting [10], 1; under setting [4], 0. Besides, the “Growth Rate” value reads like this: under setting [8], 1; under setting [5], 0; under setting [9], 1.

As for `COc1ccc(Oc2cc(NCCC(F)(F)F)c3ncc(-c4ccc(C(=O)NC5CC5)c(C)c4)n3n2)c(F)c1F` [BAY-1217389], the “Growth Rate” value under setting [6] is given as 0; the “Growth Rate” value under setting [2] is 0; the “Growth Rate” value under setting [3] is on record as 0; the “Growth Rate” value under setting [10] is 1; the “Growth Rate” value under setting [4] worked out at 0; the “Growth Rate” value under setting [8] was found to be 1. Besides, the “Growth Rate” value under setting [5] is reported as 0.

For the compound `Cc1c(-c2ccc(O)cc2)n(Cc2ccc(OCCN3CCCCCC3)cc2)c2ccc(O)cc12` [BAZEDOXIFENE], the “Growth Rate” value runs as follows: under setting [1], 0; under setting [3], 1; under setting [4], 0; under setting [8], 1; under setting [5], 0.

As for `CC(C)NCC(O)COc1ccc(CCOCC2CC2)cc1.Cl` (centres undefined) [BETAXOLOL HYDROCHLORIDE], the “Growth Rate” value under setting [6] was 0, the “Growth Rate” value under setting [4] came to 1 and the “Growth Rate” value under setting [5] is 1.

For the compound `C[C@@]1(C(=O)Nc2ccc(F)nc2)CCCN1c1nc(Nc2cc(C3CC3)n[nH]2)c2cccn2n1` [BMS-754807], the “Growth Rate” value under setting [6] was 0; the “Growth Rate” value under setting [2] is 0; the “Growth Rate” value under setting [3] is reported as 0; the “Growth Rate” value under setting [4] is listed as 0; the “Growth Rate” value under setting [5] is listed as 0.

Regarding `C=CC(=O)Nc1cc2c(Nc3ccc(F)c(Cl)c3)ncnc2cc1OCCCN1CCOCC1.Cl.Cl` [CANERTINIB DIHYDROCHLORIDE], the “Growth Rate” value came out at 0 under setting [2], 0 under setting [3], 0 under setting [4] and 0 under setting [5].

In the case of `CN(C)C(=O)N[C@H]1CC[C@H](CCN2CCN(c3cccc(Cl)c3Cl)CC2)CC1.Cl` [CARIPRAZINE HYDROCHLORIDE], the “Growth Rate” value runs as follows: under setting [6], 1; under setting [2], 0; under setting [3], 1; under setting [4], 1; under setting [5], 1.

Turning to `C[C@@H](NCCCc1cccc(C(F)(F)F)c1)c1cccc2ccccc12.Cl` [CINACALCET HYDROCHLORIDE], the “Growth Rate” value is listed as 0 under setting [7]; 1 under setting [3]; 0 under setting [10]; 0 under setting [4]; 0 under setting [5].

In the case of `CN1CCC[C@@H]1CCO[C@](C)(c1ccccc1)c1ccc(Cl)cc1.O=C(O)/C=C/C(=O)O` [CLEMASTINE FUMARATE], the “Growth Rate” value by setting is: under setting [7], 0; under setting [3], 0; under setting [4], 0; under setting [5], 0.

With `c1cn2cc(-c3ccc4cn[nH]c4c3)nc(Nc3ccc(N4CCOCC4)cc3)c2n1` [ENTOSPLETINIB], the “Growth Rate” value came out at 1 under setting [1]; 1 under setting [7]; 1 under setting [3]; 1 under setting [4]; 0 under setting [8]; 0 under setting [5].

For the compound `Cn1cc(C2=C(c3cn(C4CCN(Cc5ccccn5)CC4)c4ccccc34)C(=O)NC2=O)c2ccccc21` [ENZASTAURIN], the “Growth Rate” value is, setting by setting: under setting [6], 0; under setting [2], 0; under setting [3], 0; under setting [4], 0; under setting [5], 0.
